Data taken from article PMC4537502 (Psychopharmacology, 2015).
Where two headings read alike, the source gives them in different places.

Tests used:
D2R [1] = settings: read-out: Kd in rat brain tissue; ref Köhler et al. [1985]; cited from earlier work
D2R [2] = tested on: D2R; set-up: method as in Tolboom et al. [2015]; settings: human subjects, ref Tolboom et al. [2015], cited from earlier work
D2R [3] = target: D2R; set-up: method as in Pettersson et al. [2010]; settings: ref Pettersson et al. [2010]; read-out: high-affinity Ki at D2R; cited from earlier work
sigma-1R [4] = settings: ref Sahlholm et al. [2013], cited from earlier work; for Ki: ^3H-(+)-pentazocine competition, read-out: high-affinity Ki at sigma-1R
striatal D2Rs = tested on: striatal D2Rs; set-up: method as in Ekesbo et al. ([1999]); settings: rhesus monkeys, continuous infusion 3 mg/kg/h, ref Ekesbo et al. ([1999]); cited from earlier work
habituated rats = settings: 15.9 mg/kg, ref Rung et al. [2008], Ponten et al. [2010]; cited from earlier work
[5] = target: dopamine D2 receptor (D2R) (Rattus norvegicus, UniProt P61169); test: in vivo
Experimental: (§1) Because of limited availability of the test drug, the 60 mg/kg dose group was scanned only with ^11C-raclopride.
(§2) After drug administration and about 20 min before each microPET scan, animals were anesthetized with isoflurane (Pharmachemie BV, Haarlem, Netherlands). […] Both tracers were injected as a slow bolus (1 ml of saline-diluted tracer solution infused during a period of 1 min), using a Harvard-style injection pump.
(§3) Two rats were scanned in each scan session. They were positioned on heating mats in a microPET Focus 220 system, in transaxial position above each other with their brains in the field of view. Body temperature of the animals was kept close to normal with electronic temperature controllers. Heart rate and oxygen level of the blood during the scan were monitored using pulse oximeters (PulseSense, Nonin). […] A list mode protocol was used with a 76-min acquisition time.
(§4) Image reconstruction was performed using microPET Manager 2.3.3.6 (Siemens). The PET data were split according to position along the y-axis, so that a separate data set was acquired for each animal. The list mode data of the emission scans were reframed in a dynamic sequence of 6 × 10, 4 × 30, 2 × 60, 1 × 120, 1 × 180, 4 × 300, and 3 × 600 s (with an additional 960-s frame for the rat that was injected first). The data were reconstructed per time frame employing an iterative reconstruction algorithm (OSEM2D with Fourier rebinning, 4 iterations, and 16 subsets). […] Data sets were corrected for decay, random coincidences, scatter, and attenuation.
In ^11C-raclopride scans of the brain, three-dimensional regions of interest (ROIs) were manually drawn over the left and right striatum and cerebellum, using the program ASIPro 6.3.3.0 (Siemens). […] Time-activity curves (TACs) were generated for these regions (Fig. 1). The results are expressed as dimensionless standardized uptake values (PET-SUV), defined as [(tissue activity concentration (MBq/g) × body weight (g) / injected dose (MBq)]. Brain tissue was assumed to have a specific gravity of 1 g/ml.
Plateau values for the striatum-to-cerebellum ratio were derived from this curve fit.

D2R [6] = settings: cited from earlier work
sigma-1R [7] = target: T1, sigma-1R (Rattus norvegicus, UniProt Q9R0C9); test: microPET with ^11C-SA4503, Logan graphical analysis and Cunningham-Lassen plot (sigma-1R occupancy); assay type: in vivo; settings: for sigma-1R occupancy: rat brain, Cunningham-Lassen plot
T1 construct: from tissue; host or cells: brain of living rats (Wistar Unilever), in vivo microPET
Experimental: as §1, §2
From these samples, 25 μl of whole blood was collected and plasma (25 μl) was then obtained by centrifugation of the remaining sample (5 min at 13,000×g). Radioactivity in plasma and whole blood was determined using a calibrated gamma counter (CompuGamma CS1282, LKB-Wallac, Turku, Finland). Results are expressed as standardized uptake values (SUV), defined as [(plasma activity concentration (MBq/g) × body weight (g) / injected dose (MBq)]. Rat plasma was assumed to have a specific gravity of 1 g/ml.
as §3, §4
Logan graphical analysis was used to calculate regional tracer distribution volumes (VT). The starting time of the Logan fit was 20 min. Metabolite-corrected plasma radioactivity data were used as input function, and (uncorrected) whole blood radioactivity served to estimate the contribution of blood to brain radioactivity measured by the PET camera. […] The PMOD software package was used for curve fitting.

[8] = tested on: 6-hydroxydopamine-hemilesioned rats; settings: 7.9 mg/kg, ref Ponten et al. [2013]; cited from earlier work
rats = settings: 15.9 mg/kg, ref Rung et al. [2008], Ponten et al. [2010]; cited from earlier work
Arc gene expression = settings: rats, 10 mg/kg, ref Waters et al. [2014]; cited from earlier work
[9] = tested on: dopamine release in striatum; settings: rats, 1.7 mg/kg, ref Ponten et al. [2010]; cited from earlier work
[10] = rat, 3 and 15 mg/kg pridopidine

T1 sequence (Q9R0C9 whole entry): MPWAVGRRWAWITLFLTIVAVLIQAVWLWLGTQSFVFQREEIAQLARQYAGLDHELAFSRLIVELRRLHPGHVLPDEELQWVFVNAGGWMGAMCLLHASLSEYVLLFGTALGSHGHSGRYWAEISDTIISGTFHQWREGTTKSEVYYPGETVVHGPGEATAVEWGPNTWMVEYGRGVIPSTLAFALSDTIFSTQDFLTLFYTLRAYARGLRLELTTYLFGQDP
Sequence of dopamine D2 receptor (D2R) (P61169 whole entry): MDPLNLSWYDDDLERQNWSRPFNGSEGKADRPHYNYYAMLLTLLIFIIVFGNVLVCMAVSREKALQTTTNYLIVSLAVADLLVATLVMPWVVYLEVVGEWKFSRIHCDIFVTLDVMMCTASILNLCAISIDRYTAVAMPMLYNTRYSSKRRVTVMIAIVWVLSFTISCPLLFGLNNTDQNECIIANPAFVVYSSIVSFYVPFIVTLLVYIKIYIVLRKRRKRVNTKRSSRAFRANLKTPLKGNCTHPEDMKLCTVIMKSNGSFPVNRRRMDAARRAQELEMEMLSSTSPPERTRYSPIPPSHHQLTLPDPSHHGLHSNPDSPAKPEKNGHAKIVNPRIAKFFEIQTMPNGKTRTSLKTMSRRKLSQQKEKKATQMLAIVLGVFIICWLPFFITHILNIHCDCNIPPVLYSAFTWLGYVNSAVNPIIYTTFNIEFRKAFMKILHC

CCN1CCC[C@H]1CNC(=O)c1c(O)c(Cl)cc(Cl)c1OC (racemic) [^11C-raclopride]
Kd (D2R [1]): 1.2 nM

CCCN1CCC[C@@H](c2cccc(S(C)(=O)=O)c2)C1 [(−)-OSU6162]
D2R occupancy (D2R [2]; doses 15 to 90 mg (0.14 to 1.25 mg/kg)): 2 to 33% | level at which the dose-occupancy curve appeared to level off (D2R [2]): 40% | Ki (D2R [3]): 760 nM | Ki (sigma-1R [4]): ~360 nM | affinity for sigma-1R relative to D2R (sigma-1R [4]; Pettersson et al. [2010]): about two times higher affinity for sigma-1R than for D2R | displacement of ^11C-raclopride (striatal D2Rs): 76%

CCCN1CCC(c2cccc(S(C)(=O)=O)c2)CC1 [pridopidine, 4-[3-(methylsulfonyl)phenyl]-1-propylpiperidine]
effect on locomotor activity in habituated rats (habituated rats): increased locomotor activity in habituated rats | reduction of ^11C-raclopride binding ([5]; rat striatum, 60 mg/kg pridopidine s.c.): 44–66% | effect on ^11C-raclopride uptake (time-activity curves) ([5]; rat, 3 mg/kg pridopidine): increase tracer uptake in striatum but not in cerebellum | effect on ^11C-raclopride uptake (time-activity curves) ([5]; rat, 15 mg/kg pridopidine): increase tracer uptake in both striatum and cerebellum to a rather minor extent | effect on ^11C-raclopride uptake (time-activity curves) ([5]; rat, 60 mg/kg pridopidine): striking increase of the uptake of ^11C-raclopride in both striatum and cerebellum | changes in ^11C-raclopride binding [5, 10]: No significant changes | receptor occupancy at 60 mg/kg ([5]; rat, sc, read-out: D2R occupancy (SRTM fit)): 44% | Ki (D2R [3]): 7520 nM | Ki (sigma-1R [4]): ~70 nM | D2R occupancy (D2R [6]; Sprague-Dawley rats, 10 mg/kg, ex vivo radioligand binding, ref Natesan et al. [2006]): 35% | ED50 of D2R occupancy (D2R [6]; Sprague-Dawley rats, ex vivo radioligand binding, ref Natesan et al. [2006]): 18.99 mg/kg | time to maximal D2R occupancy after s.c. injection (D2R [6]; rat, ref Natesan et al. ([2006])): ≤ 1 h | time maximal D2R occupancy is maintained (D2R [6]; rat, s.c., ref Natesan et al. ([2006])): 4 h | sigma-1R occupancy (sigma-1R [7]; pridopidine 3 mg/kg s.c. 60 min before tracer): 56.7 ± 2.3% | sigma-1R occupancy (sigma-1R [7]; pridopidine 15 mg/kg s.c. 60 min before tracer): 84.5 ± 1.7% | VT of ^11C-SA4503 (Logan graphical analysis) (sigma-1R [7]; rat whole brain and brain regions, 3 and 15 mg/kg pridopidine): dose-dependent reduction in VT for all regions investigated | area under the brain time-activity curve (AUC) of ^11C-SA4503 (sigma-1R [7]; [10]): significantly decreased | receptor occupancy at 3 mg/kg (sigma-1R [7]; rat, sc, read-out: sigma-1R occupancy, rat brain, pridopidine 3 mg/kg s.c. 60 min before tracer, Cunningham-Lassen plot): 57 ± 2% | receptor occupancy at 15 mg/kg (sigma-1R [7]; rat, sc, read-out: sigma-1R occupancy, rat brain, pridopidine 15 mg/kg s.c. 60 min before tracer, Cunningham-Lassen plot): 85 ± 2% | effect on L-DOPA-induced rotational asymmetry [8]: decreased L-DOPA-induced rotational asymmetry in 6-hydroxydopamine-hemilesioned rats | effect on MK-801- and amphetamine-induced hyperlocomotion (rats): decreased MK-801- and amphetamine-induced hyperlocomotion | effect on Arc gene expression in frontal cortex (Arc gene expression): induced Arc gene expression in frontal cortex | effect on dopamine release in striatum [9]: increased dopamine release in striatum
